Experimental data reported in patent US20250367111A1, “DELIVERY OF SUSTAINED LOCAL AND SYSTEMIC IMMUNOMODULATION” (Northeastern University, priority 2024, published 2025).

Key:
[1] = intratumoral; 40 patients with advanced metastatic solid tumors or lymphomas; cited from earlier work
[2] = EMBRACA, cited from earlier work
[3] = Blood cell count with Procyte Dx Analyzer after oral TLZ; format: in vivo; details: BRCA−/− breast cancer mice, indicative of bone marrow toxicity
Source text: PARPi have been limited due to induction of bone marrow toxicity.

[4] = tested on: mammary glands of BRCA1-deficient mice; test: Cancer biomarkers (PCNA, γ-H2AX) in mammary glands of BRCA1-deficient mice; format: in vivo; details: mammary glands harvested 4 weeks after treatment
Protocol: InCeT-TLZ favorably alters cancer biomarkers compared with systemic administration or empty implants. Mammary glands were harvested 4 weeks after BRCA1-deficient mice were treated with implants (InCeT-TLZ or empty InCeT) or free TLZ. As shown in, over half of the epithelial cells in the mammary glands of mice treated with empty InCeT were positive for PCNA, confirming robust proliferation.

[5] = tested on: Brca2−/−p53−/−R172H Pten−/− intraperitoneal disseminated metastatic ovarian cancer model; test: Survival in intraperitoneal disseminated metastatic ovarian cancer model; format: in vivo; details: i.p.; 50 μg TLZ over 21 days (implant or equivalent dose by periodic injections)
Protocol: In a Brca2^−/−p53^−/−R172H Pten^−/− intraperitoneal disseminated metastatic ovarian cancer model, SMAART-TLZ i.p implants (50 μg TLZ release over 21 days) increased median survival to 92 days compared to periodic i.p injections of TLZ at the equivalent drug dose over 21 days (70 days median OS-FIG. 6A).

[6] = tested on: BRCA−/− model with conditional BRCA1/2, PTEN, and TP53 deletions (mFT3666); test: Survival in BRCA−/− mOC model (mFT3666); format: in vivo, mice; details: free TLZ; control ~57 days
Protocol: Sustained PARP inhibition doubles survival in BRCA^−/− mOC model. Therapeutic efficacy was tested in vivo in a BRCA^−/− model with conditional BRCA1/2, PTEN, and TP53 deletions (mFT3666) that mimics late stage disseminated disease. Free TLZ slowed disease progression and extended median survival to ˜70 days, compared with control (˜57 days). These animals eventually developed severe ascites and had to be sacrificed. A InCeT-TLZ implant loaded with 50 μg of TLZ was injected into the peritoneal cavity using an 18 gauge needle every 25 days. Most of the InCeT-TLZ group of animals survived until 93 days, with some developing ascites.

TNBC = details: cited from earlier work

In the case of `Nc1ncnc2c1ncn2[C@@H]1O[C@@H]2COP(=O)([S-])O[C@@H]3[C@H](O)[C@@H](COP([O-])(=S)O[C@H]2[C@H]1O)O[C@H]3n1cnc2c(N)ncnc21.[Na+].[Na+]` (stereo partly shown) [ADU-S100], the dose-limiting toxicities [1] is given as “no dose-limiting toxicities”.
For `Cn1ncnc1[C@H]1c2n[nH]c(=O)c3cc(F)cc(c23)N[C@@H]1c1ccc(F)cc1` [TLZ, Talazoparib], the “patients with adverse events” value [2] is listed as 65%, the “patients with adverse events needing dose reduction below the therapeutic level” value ([2]; of those patients) is listed as 53% and the red blood cells [3] is listed as “decrease in red blood cells”. For the same compound, the “reduction of PCNA+ cells” value [4] was roughly 50%, the γ-H2AX expression [4] was “but not free TLZ increased γ-H2AX expression” and the median survival [5] was 70 days. It also gave a median survival [6] of roughly 70 days.
For `O=C(c1cc(Cc2n[nH]c(=O)c3ccccc23)ccc1F)N1CCN(C(=O)C2CC2)CC1` [olaparib], the “overall response rate (ORR)” value (TNBC; human, in vivo) is given as 59.9% and the “progression-free survival (PFS)” value (TNBC; vs. 4.2 months standard chemotherapy) is given as 7 months.
